Experimental data as given in patent publication US10829452B2, “Histone methyltransferase inhibitors” (GLOBAL BLOOD THERAPEUTICS, INC., priority 2016, dated 2020).
Structures can show the parent of a compound that is named as a salt.

target: T1, G9a (Homo sapiens, UniProt Q96KQ7); assay: G9a AlphaLISA enzymatic activity assay; format: biochemical; conditions: 0.15 nM G9a, 15 uM S-adenosyl-methionine, 100 nM biotinylated histone 3 peptide (1-21), 1 hour at room temperature; read-out: G9a in (uM) (IC50, concentration that produced 50% inhibition)
T1 sequence (Q96KQ7 1-1210): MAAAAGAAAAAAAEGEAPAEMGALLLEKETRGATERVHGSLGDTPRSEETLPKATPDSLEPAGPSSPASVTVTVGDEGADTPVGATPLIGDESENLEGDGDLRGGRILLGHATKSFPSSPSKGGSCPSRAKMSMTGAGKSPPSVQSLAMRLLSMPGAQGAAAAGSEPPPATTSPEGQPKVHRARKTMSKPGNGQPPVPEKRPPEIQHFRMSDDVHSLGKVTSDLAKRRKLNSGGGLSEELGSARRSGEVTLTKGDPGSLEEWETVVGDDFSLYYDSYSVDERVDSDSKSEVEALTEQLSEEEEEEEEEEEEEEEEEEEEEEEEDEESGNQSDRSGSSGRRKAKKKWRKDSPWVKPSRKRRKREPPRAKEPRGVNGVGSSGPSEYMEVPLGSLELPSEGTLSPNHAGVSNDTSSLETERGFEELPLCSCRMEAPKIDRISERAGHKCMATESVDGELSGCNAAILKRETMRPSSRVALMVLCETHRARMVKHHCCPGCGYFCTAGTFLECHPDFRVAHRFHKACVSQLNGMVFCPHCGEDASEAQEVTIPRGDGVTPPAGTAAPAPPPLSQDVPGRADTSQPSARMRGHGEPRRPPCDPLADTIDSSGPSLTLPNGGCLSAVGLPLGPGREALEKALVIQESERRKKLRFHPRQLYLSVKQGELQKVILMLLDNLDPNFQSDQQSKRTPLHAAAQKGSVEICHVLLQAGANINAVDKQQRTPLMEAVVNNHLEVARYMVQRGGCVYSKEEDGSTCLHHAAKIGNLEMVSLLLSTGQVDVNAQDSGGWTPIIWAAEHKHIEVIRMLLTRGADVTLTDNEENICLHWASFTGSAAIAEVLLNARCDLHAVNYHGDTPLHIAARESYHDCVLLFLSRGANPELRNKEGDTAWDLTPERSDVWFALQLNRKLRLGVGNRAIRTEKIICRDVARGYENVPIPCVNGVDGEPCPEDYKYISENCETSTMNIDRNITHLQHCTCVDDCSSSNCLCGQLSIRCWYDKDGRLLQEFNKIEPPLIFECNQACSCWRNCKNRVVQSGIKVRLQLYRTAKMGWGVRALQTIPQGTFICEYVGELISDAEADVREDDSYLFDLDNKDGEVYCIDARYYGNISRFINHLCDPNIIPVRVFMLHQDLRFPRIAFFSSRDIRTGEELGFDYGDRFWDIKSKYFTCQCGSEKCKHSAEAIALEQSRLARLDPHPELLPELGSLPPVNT
Procedure, shortened: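 Human G9a (0.15 nM) methylated 100 nM biotinylated histone H3(1-21) peptide with 15 uM SAM in Tris-HCl pH9 buffer with NaCl, Tween-20 and DTT, 1 h at room temperature. H3K9me2 was detected by AlphaLISA acceptor/streptavidin donor beads (20 ug/mL each); IC50 from percent inhibition across compound dilutions.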

Compound | IC50
COc1ccc(CNc2nc3cc(OCCCN4CCCC4)c(OC)cc3c3c2CC(C)(C)C3)c(OC)c1 [Example 117, N-[(2,4-dimethoxyphenyl)methyl]-8-methoxy-2,2-dimethyl-7-[3-(pyrrolidin-1-yl)propoxy]-1H,2H,3H-cyclopenta[c]quinolin-4-amine formate] | 0.36 µM
COc1cc2c3c(c(NC4CCC(O)C4)nc2cc1OCCCN1CCCC1)CCC3 (stereo not shown) [Example 126, 3-({8-methoxy-7-[3-(pyrrolidin-1-yl)propoxy]-1H,2H,3H-cyclopenta[c]quinolin-4-yl}amino)cyclopentan-1-ol formate] | 0.15 µM
COc1cc2c3c(c(C4CC4)nc2cc1OCCCN1CCCC1)CCC(C)(C)N3 [Example 76, 1-[3-({5-cyclopropyl-9-methoxy-2,2-dimethyl-1H,2H,3H,4H-benzo[h]1,6-naphthyridin-8-yl}oxy)propyl]pyrrolidine formate] | 0.013 µM
COc1cc2c3c(c(C4CCCCC4)nc2cc1OCCCN1CCCC1)CCC3 [Example 110, 1-[3-({4-cyclohexyl-8-methoxy-1H,2H,3H-cyclopenta[c]quinolin-7-yl}oxy)propyl]pyrrolidine trifluoroacetate] | 1.4 µM
COc1cc2c3c(c(NC(C)C)nc2c(F)c1OCCCN1CCCC1)CCC3 [Example 63, 6-fluoro-8-methoxy-N-(propan-2-yl)-7-[3-(pyrrolidin-1-yl)propoxy]-1H,2H,3H-cyclopenta[c]quinolin-4-amine formate] | 2.3 µM
COc1cc2c3c(c(NCCO)nc2cc1OCCCN1CCCC1)CCCC3 [Example 15, 2-({2-methoxy-3-[3-(pyrrolidin-1-yl)propoxy]-7,8,9,10-tetrahydrophenanthridin-6-yl}amino)ethan-1-ol formate] | 0.19 µM
COc1cc2c3c(c(NC4CC4)nc2cc1OCCCN1CCCC1)CCC3 [Example 105, N-cyclopropyl-8-methoxy-7-[3-(pyrrolidin-1-yl)propoxy]-1H,2H,3H-cyclopenta[c]quinolin-4-amine trifluoroacetate] | 0.021 µM
COc1cc2c3c(cnc2cc1OCCCN1CCCC1)CCC3 [Example 21, 1-[3-({8-methoxy-1H,2H,3H-cyclopenta[c]quinolin-7-yl}oxy)propyl]pyrrolidine trifluoroacetate] | 0.62 µM
COc1cc2c3c(c(N(C)c4ccccc4)nc2cc1OCCCN1CCCC1)CCC3 [Example 69, 8-methoxy-N-methyl-N-phenyl-7-[3-(pyrrolidin-1-yl)propoxy]-1H,2H,3H-cyclopenta[c]quinolin-4-amine trifluoroacetate] | > 10 µM
CNc1nc2cc(OCCCN3CCCC3)c(OC)cc2c2c1CCC2 [Example 1, 8-methoxy-N-methyl-7-[3-(pyrrolidin-1-yl)propoxy]-1H,2H,3H-cyclopenta[c]quinolin-4-amine formate] | 0.031 µM
COc1cc2c3c(c(NCCC(C)C)nc2cc1OCCCN1CCCC1)CC(C)(C)C3 [Example 87, 8-methoxy-2,2-dimethyl-N-(3-methylbutyl)-7-[3-(pyrrolidin-1-yl)propoxy]-1H,2H,3H-cyclopenta[c]quinolin-4-amine formate] | 0.15 µM
COc1cc2c3c(c(NCC4CCC4)nc2cc1OCCCN1CCCC1)CC(C)(C)C3 [Example 96, N-(cyclobutylmethyl)-8-methoxy-2,2-dimethyl-7-(3-(pyrrolidin-1-yl)propoxy)-2,3-dihydro-1H-cyclopenta[c]quinolin-4-amine formate] | 0.1 µM
CNc1nc2cc(OCCCN3CCCC3)c(OC)cc2c2c1CCCCN2 [Example 33, 10-methoxy-N-methyl-9-[3-(pyrrolidin-1-yl)propoxy]-1H,2H,3H,4H,5H-azepino[3,2-c]quinolin-6-amine formate] | 0.012 µM
COc1cc2c3c(c(NC4CCC4)nc2cc1OCCCN1CCCC1)CCC3 [Example 7, N-cyclobutyl-8-methoxy-7-[3-(pyrrolidin-1-yl)propoxy]-1H,2H,3H-cyclopenta[c]quinolin-4-amine formate] | 0.045 µM
COc1cc2nc(NC3CC3)c3c(c2cc1OCCCN1CCCC1)COC3 [Example 47, N-cyclopropyl-7-methoxy-8-[3-(pyrrolidin-1-yl)propoxy]-1H,3H-furo[3,4-c]quinolin-4-amine] | 3.1 µM
COc1cc2c3c(c(C4CC4)nc2cc1OCCCN1CCCC1)CCCCN3 [Example 80, 1-[3-({6-cyclopropyl-10-methoxy-1H,2H,3H,4H,5H-azepino[3,2-c]quinolin-9-yl}oxy)propyl]pyrrolidine trifluoroacetate] | 0.009 µM
COc1cc2c3c(c(C(C)C)nc2cc1OCCCN1CCCC1)CCC(C)(C)N3 [Example 77, 1-(3-{[9-methoxy-2,2-dimethyl-5-(propan-2-yl)-1H,2H,3H,4H-benzo[h]1,6-naphthyridin-8-yl]oxy}propyl)pyrrolidine formate] | 0.007 µM
COc1cc2c3c(c(N[C@H]4C[C@H](O)C4)nc2cc1OCCCN1CCCC1)CCC3 [Example 16, (1r,3r-3-({8-methoxy-7-[3-(pyrrolidin-1-yl)propoxy]-1H,2H,3H-cyclopenta[c]quinolin-4-yl}amino)cyclobutan-1-ol trifluoroacetate] | 0.11 µM
COc1cc2c3c(c(C)nc2cc1OCCCN1CCCC1)CCCCN3 [Example 82, 1-[3-({10-methoxy-6-methyl-1H,2H,3H,4H,5H-azepino[3,2-c]quinolin-9-yl}oxy)propyl]pyrrolidine trifluoroacetate] | 0.006 µM
COc1cc2c3c(c(NCC(C)C)nc2cc1OCCCN1CCCC1)CC(C)(C)C3 [Example 95, N-isobutyl-8-methoxy-2,2-dimethyl-7-(3-(pyrrolidin-1-yl)propoxy)-2,3-dihydro-1H-cyclopenta[c]quinolin-4-amine formate] | 0.07 µM
COc1cc2c3c(c(N[C@H]4CCCC[C@@H]4O)nc2cc1OCCCN1CCCC1)CCC3 [Example 122, (1S,2S)-2-({8-methoxy-7-[3-(pyrrolidin-1-yl)propoxy]-1H,2H,3H-cyclopenta[c]quinolin-4-yl}amino)cyclohexan-1-ol formate] | 0.043 µM
COc1cc2c3c(c(C4CCCC4)nc2cc1OCCCN1CCCC1)CC(C)(C)N3 [Example 113, 1-[3-({4-cyclopentyl-8-methoxy-2,2-dimethyl-1H,2H,3H-pyrrolo[3,2-c]quinolin-7-yl}oxy)propyl]pyrrolidine hydrochloride] | 0.006 µM
COc1cc2c3c(c(NC(C)C)nc2cc1OCCCN1CCCC1)CCCN3 [Example 27, 9-methoxy-N-(propan-2-yl)-8-[3-(pyrrolidin-1-yl)propoxy]-1H,2H,3H,4H-benzo[h]1,6-naphthyridin-5-amine trifluoroacetate] | 0.006 µM
COc1cc2c3c(c(NC(C)C)nc2cc1OCCCN1CCC(C)(C)C1)CCC3 [Example 86, 7-[3-(3,3-dimethylpyrrolidin-1-yl)propoxy]-8-methoxy-N-(propan-2-yl)-1H,2H,3H-cyclopenta[c]quinolin-4-amine formate] | > 10 µM
COc1cc2c3c(c(NCC(C)C)nc2cc1OCCCN1CCCC1)CCC3 [Example 103, 8-methoxy-N-(2-methylpropyl)-7-[3-(pyrrolidin-1-yl)propoxy]-1H,2H,3H-cyclopenta[c]quinolin-4-amine trifluoroacetate] | 0.027 µM
COc1cc2c3c(cnc2cc1OCCCN1CCCC1)CCC(C)(C)N3 [Example 75, 1-[3-({9-methoxy-2,2-dimethyl-1H,2H,3H,4H-benzo[h]1,6-naphthyridin-8-yl}oxy)propyl]pyrrolidine formate] | 0.014 µM
Cl.Cl.[2H]C(C)(C)Nc1nc2cc(OCCCN3CCCC3)c(OC)cc2c2c1CCC2 [Example 102, 8-methoxy-N-[(2-^2H)propan-2-yl]-7-[3-(pyrrolidin-1-yl)propoxy]-1H,2H,3H-cyclopenta[c]quinolin-4-amine hydrochloride] | 0.013 µM
COc1cc2c3c(c(-c4ccccc4)nc2cc1OCCCN1CCCC1)CCC3 [Example 111, 1-[3-({8-methoxy-4-phenyl-1H,2H,3H-cyclopenta[c]quinolin-7-yl}oxy)propyl]pyrrolidine formate] | 4.9 µM
